Here are results for one molecule from patent EP0423727B1, “Silver halide color photographic material containing colored coupler” (FUJI PHOTO FILM CO., LTD., priority 1989, dated 1991).

The data set in a line: spectral absorption of the colored coupler in methanol. It is filed as physicochemical. The method, then: 10.1 g of compound c synthesized by the method described in U.S. Patent 4,138,258 was dissolved in 60 ml of N,N-dimethylformamide and 60 ml of methyl cellosolve. While cooling the resulting solution with ice, 4.3 ml of concentrated hydrochloric acid was added thereto and a solution of 1.84 g of sodium nitrite in 5 ml of water was added dropwise thereto to prepare a diazonium solution. 60 ml of methyl cellosolve and 20 ml of water were added to 7.8 g of the compound b and 8.2 g of sodium acetate. While stirring the resulting solution under ice cooling, the above diazonium solution was added dropwise thereto. After dropwise addition, the mixture was stirred for one hour and then at room temperature for 2 hours. The precipitated crystal was recovered by filtration, washed with water, dried and dispersed in 500 ml of methanol. The dispersion was heated to reflux for one hour and then allowed to stand to cool it. The crystal was recovered by filtration, washed with methanol and dried to give 13.6 g of the desired coupler (1) as a red crystal with a melting point of 269 to 272°C (decomposition). The structure of the compound was confirmed by ¹HNMR spectrum, mass spectrum and elemental analysis.
75 ml of methyl cellosolve and 26 ml of water were added to 10.1 g of the compound b and 10.7 g of sodium acetate. While stirring the resulting solution under ice cooling, the above diazonium solution was added dropwise thereto. After dropwise addition, the mixture was stirred for one hour and then at room temperature for 2 hours. The precipitated crystal was recovered by filtration and dispersed in 200 ml of methanol. A solution of 2.2 g of sodium hydroxide in 10 ml of water was added dropwise thereto. The mixture was stirred for 3 hours and neutralized with concentrated hydrochloric acid. The precipitated crystal was washed with water and then methanol and dried. The resulting crude crystal was purified from hot methanol in the same manner as in Synthesis Example 1 to give 14.8 g of the desired coupler (3) with a melting point of 246 to 251°C (decomposition). […]

With `CCCCCCCCC(CCCCCC)COCCCNC(=O)c1cc(OCCOc2ccc(N=Nc3c(C)c(C#N)c(=O)n(-c4ccccc4C(=O)O)c3O)cc2)c2ccccc2c1O` (stereo not drawn) [(22)], the “spectral absorption characteristics as a yellow colored coupler” value was “good”. Further, for the setting “in methanol”, the maximum absorption wavelength is reported as 458.2 nm and the molecular extinction coefficient stood at 42800.
